Source: US11800867B2, “Methods of repelling biting arthropods, reducing pathogen spread and treating arthropod infestation” (priority 2016, dated 2023)
Values joined by “and” are separate entries in the source; they are usually repeats but may differ in a detail not shown here. Equal values may be shown once.

Legend:
Format in all cases: in vivo
[1] = system: Yellow Fever mosquito (Aedes aegypti); assay: Treated filter paper knockdown (KD) and mortality trial (Example 4)
Method: (§1) A laboratory trial was conducted to assess the efficacy of nootkatone applied to filter paper against aphids (Schizaphis gramium), dust mites (Dermatophagoides sp.), termites (Reticulitermes flavipes), deer ticks (Ixodes scapularis), biting midges (Culicoides sp.), fire ants (Solenopsis invicta), and mosquitoes (Aedes aegypti and Culex), in terms of knockdown (KD) and mortality. One concentration (1% in ethanol) of nootkatone was assessed for most species, but three concentrations (0.25%, 0.5%, and 1% in ethanol) were assessed for mosquitoes. A negative control group, consisting of filter paper treated with ethanol, was also assessed for comparison purposes for each species.
(§2) Test systems were introduced to treated filter paper, allowed to dry, and then introduced into treatment chamber, where treated arthropods were monitored at intervals up to 72 hours. If 100% mortality was obtained prior to 72 hours, the individual study was halted.
Midges and mosquitoes—5 replicates of 10 insects per treatment were tested. Inverted 10 ounce (295 ml) clear plastic cups with a 0.5 inch (1.27 cm) hole burned into the center of the bottom, and with the sides coated with Fluon® was used at the treatment containers. The bottoms of the containers consisted of Petri dish lids 3.54 inches (9.0 cm) in diameter lined with a treated filter paper circle the same diameter. The cup was placed over the filter paper in the lid and both were secured in place using 2 rubber bands. The insects were introduced through the hole in the cup, and a plastic disc was placed over the opening to prevent escapes.
(§3) Readings were discontinued if treated mortality reaches […], or control mortality exceeds 20%.

[2] = system: cat fleas (Ctenocephalides felis); assay: Filter paper choice test of repelling action (Example 6); settings: for Raw data: number of fleas on Treated half of treated arena, per replicate / Raw data: number of fleas on Untreated half of treated arena, per replicate: 0.5% nootkatone in ethanol, Replicates 1-5
Method: An in vitro laboratory trial was required to assess the repelling action of nootkatone applied to filter paper against cat fleas (Ctenocephalides felis), deer ticks (Ixodes scapularis), bed bugs (Cimex lectularius), and termites (Reticulitermes flavipes) in a choice test design.
The sponsor provided a sample of nootkatone (98%), which was diluted in ethanol to a 0.5% concentration. The treatment was applied to filter paper at a rate of 1 mL for a 9 cm filter paper disc, and a rate of 1.9 mL for a 15 cm filter paper disc. A negative control group, consisting of untreated filter paper, was also assessed for comparison purposes.
Cat fleas: Treated and untreated filter papers were cut in half and fitted into the bottom of a 15 cm clear plastic cylinder. Treated replicates received one half treated and one half untreated filter paper; negative control replicates received only untreated filter paper.
Cat fleas: Cat fleas were introduced to the untreated side of each arena, and their distribution (on or under each paper) was recorded at +1, +4, and +24 hours post-introduction.
The number of insects in each location was converted to a percentage, for which the average and standard error were calculated across all five replicates.
Percent repellency was calculated with the following formula: % repellency=(1−((t/T)/(c/C)))*100 • Where t=number of insects on treated side of treated arena • T=total number of insects in treated arena • c=average number of insects on right side of untreated arenas • C=average total number of insects in untreated arenas

[3] = system: termites (Reticulitermes flavipes); assay: Treated filter paper knockdown (KD) and mortality trial (Example 4); settings: Nootkatone 1% in ethanol on filter paper
Method: as §1, §2
Termites—3 replicates of 10 termites were tested per treatment. One long glass tube with screened ends (to provide ventilation) was used for each test container. Test containers were placed into a larger container to prevent escapes, and were kept in darkness and at high humidity for the duration of the experiment. Filter papers were cut into strips and fitted inside the glass tubes. Two paper strips were pushed end to end to form one continuous strip, leaving a 2 mm gap running the entire length of the tube for viewing termite activity.
as §3

[4] = Nootkatone 0.25% in ethanol on filter paper, 30 minutes post introduction
[5] = Nootkatone 0.25% in ethanol on filter paper, 1 hour post introduction
[6] = Nootkatone 0.25% in ethanol on filter paper, 4 hours post introduction
[7] = Nootkatone 0.25% in ethanol on filter paper, 8 hours post introduction
[8] = Nootkatone 0.25% in ethanol on filter paper, 24 hours post introduction
[9] = Nootkatone 0.25% in ethanol on filter paper, 48 hours post introduction
[10] = Nootkatone 0.25% in ethanol on filter paper, 72 hours post introduction
[11] = Nootkatone 0.5% in ethanol on filter paper, 30 minutes post introduction
[12] = Nootkatone 0.5% in ethanol on filter paper, 1 hour post introduction
[13] = Nootkatone 0.5% in ethanol on filter paper, 4 hours post introduction
[14] = Nootkatone 0.5% in ethanol on filter paper, 8 hours post introduction
[15] = Nootkatone 0.5% in ethanol on filter paper, 24 hours post introduction
[16] = Nootkatone 0.5% in ethanol on filter paper, 48 hours post introduction
[17] = Nootkatone 0.5% in ethanol on filter paper, 72 hours post introduction
[18] = Nootkatone 1% in ethanol on filter paper, 30 minutes post introduction
[19] = Nootkatone 1% in ethanol on filter paper, 1 hour post introduction
[20] = Nootkatone 1% in ethanol on filter paper, 4 hours post introduction
[21] = Nootkatone 1% in ethanol on filter paper, 8 hours post introduction
[22] = Nootkatone 1% in ethanol on filter paper, 24 hours post introduction
[23] = Nootkatone 1% in ethanol on filter paper, 48 hours post introduction
[24] = Nootkatone 1% in ethanol on filter paper, 72 hours post introduction

SMILES: C=C(C)[C@@H]1CCC2=CC(=O)C[C@@H](C)[C@]2(C)C1 [Nootkatone, nootkatone]
- Means Affected [1, 4]: 17.8%
- Means Dead [1, 4]: 17.8%
- Means KD [1, 4]: 0.0%
- Means Affected [1, 5]: 20.0%
- Means Dead [1, 5]: 20.0%
- Means KD [1, 5]: 0.0%
- Means Affected [1, 6]: 20.0%
- Means Dead [1, 6]: 20.0%
- Means KD [1, 6]: 0.0%
- Means Affected [1, 7]: 17.8%
- Means Dead [1, 7]: 15.6%
- Means KD [1, 7]: 2.2%
- Means Affected [1, 8]: 17.8%
- Means Dead [1, 8]: 13.3%
- Means KD [1, 8]: 4.4%
- Means Affected [1, 9]: 17.6%
- Means Dead [1, 9]: 15.6%
- Means KD [1, 9]: 2.0%
- Means Affected [1, 10]: 26.0%
- Means Dead [1, 10]: 17.6%
- Means KD [1, 10]: 8.4%
- Means Affected [1, 11]: 0.0%
- Means Dead [1, 11]: 0.0%
- Means KD [1, 11]: 0.0%
- Means Affected [1, 12]: 0.0%
- Means Dead [1, 12]: 0.0%
- Means KD [1, 12]: 0.0%
- Means Affected [1, 13]: 5.3%
- Means Dead [1, 13]: 0.0%
- Means KD [1, 13]: 5.3%
- Means Affected [1, 14]: 29.9%
- Means Dead [1, 14]: 0.0%
- Means KD [1, 14]: 29.9%
- Means Affected [1, 15]: 83.1%
- Means Dead [1, 15]: 22.5%
- Means KD [1, 15]: 60.6%
- Means Affected [1, 16]: 87.1%
- Means Dead [1, 16]: 72.0%
- Means KD [1, 16]: 15.1%
- Means Affected [1, 17]: 100.0%
- Means Dead [1, 17]: 92% and 92.5%
- Means KD [1, 17]: 7.5%
- Means Affected [1, 18]: 0.0%
- Means Dead [1, 18]: 0.0%
- Means KD [1, 18]: 0.0%
- Means Affected [1, 19]: 1.8%
- Means Dead [1, 19]: 0.0%
- Means KD [1, 19]: 1.8%
- Means Affected [1, 20]: 46.9%
- Means Dead [1, 20]: 0.0%
- Means KD [1, 20]: 46.9%
- Means Affected [1, 21]: 80.4%
- Means Dead [1, 21]: 0.0%
- Means KD [1, 21]: 80.4%
- Means Affected [1, 22]: 84.0%
- Means Dead [1, 22]: 65.5%
- Means KD [1, 22]: 18.5%
- Means Affected [1, 23]: 90.0%
- Means Dead [1, 23]: 80.4%
- Means KD [1, 23]: 9.6%
- Means Affected [1, 24]: 94.0%
- Means Dead [1, 24]: 92%
- Means KD [1, 24]: 2.0%
- Repellency (conclusion in words) ([2]; 0.5% nootkatone in ethanol on filter paper): some potential repellency
- Raw data: number of fleas on Treated half of treated arena, per replicate ([2]; 1 Hour post introduction): 3 (2×) and 8 and 6 and 4
- Raw data: number of fleas on Untreated half of treated arena, per replicate ([2]; 1 Hour post introduction): 2 and 4 (2×) and 7 and 3
- Raw data: number of fleas on Treated half of treated arena, per replicate ([2]; 4 Hours post introduction): 2 and 1 and 3 (2×) and 4
- Raw data: number of fleas on Untreated half of treated arena, per replicate ([2]; 4 Hours post introduction): 9 and 7 and 6 (2×) and 4
- Raw data: number of fleas on Treated half of treated arena, per replicate ([2]; 24 Hours post introduction): 0 and 2 and 4 and 1 (2×)
- Raw data: number of fleas on Untreated half of treated arena, per replicate ([2]; 24 Hours post introduction): 8 (2×) and 6 (2×) and 9
- Calculated percent repellency (average ± SE) ([2]; nootkatone (98%) 0.5% in ethanol on filter paper, half treated, half untreated arena): 61.9 ± 15.0%
- Time required for greater than 90% killing [3]: 72 h
- Means Affected ([3]; 30 minutes post introduction): 0.0%
- Means Dead ([3]; 30 minutes post introduction): 0.0%
- Means KD ([3]; 30 minutes post introduction): 0.0%
- Means Affected ([3]; 1 hour post introduction): 0.0%
- Means Dead ([3]; 1 hour post introduction): 0.0%
- Means KD ([3]; 1 hour post introduction): 0.0%
- Means Affected ([3]; 4 hours post introduction): 0.0%
- Means Dead ([3]; 4 hours post introduction): 0.0%
- Means KD ([3]; 4 hours post introduction): 0.0%
- Means Affected ([3]; 24 hours post introduction): 83.3%
- Means Dead ([3]; 24 hours post introduction): 0.0%
- Means KD ([3]; 24 hours post introduction): 83.3%
- Means Affected ([3]; 48 hours post introduction): 86.7%
- Means Dead ([3]; 48 hours post introduction): 86.7%
- Means KD ([3]; 48 hours post introduction): 0.0%
- Means Affected ([3]; 72 hours post introduction): 90.0%
- Means Dead ([3]; 72 hours post introduction): 90%
- Means KD ([3]; 72 hours post introduction): 0.0%
